Results: PubChem BioAssay (NCI)
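Method: 48-hour compound exposure of cells in 96-well plates, five concentrations, linear interpolation of endpoints. TGI: concentration producing complete growth inhibition.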

Experiments:
Experiment in all cases: NCI anticancer screen, dose series, 48 h
COLO 205 colon = system: COLO 205 colon
HS 578T breast = system: HS 578T breast
LOX IMVI melanoma = system: LOX IMVI melanoma
HCT-116 colon = system: HCT-116 colon
K-562 leukemia = system: K-562 leukemia
MDA-MB-231 breast = system: MDA-MB-231 breast
NCI-H522 lung = system: NCI-H522 lung
NCI-H226 lung = system: NCI-H226 lung
SN12C renal = system: SN12C renal
A498 renal = system: A498 renal
MOLT-4 leukemia = system: MOLT-4 leukemia
KM12 colon = system: KM12 colon
HL-60(TB) leukemia = system: HL-60(TB) leukemia

Compound | TGI (COLO 205 colon) [µM] | TGI (HS 578T breast) [µM] | TGI (LOX IMVI melanoma) [µM] | TGI (HCT-116 colon) [µM] | TGI (K-562 leukemia) [µM] | TGI (MDA-MB-231 breast) [µM] | TGI (NCI-H522 lung) [µM] | TGI (NCI-H226 lung) [µM] | TGI (SN12C renal) [µM] | TGI (A498 renal) [µM] | TGI (MOLT-4 leukemia) [µM] | TGI (KM12 colon) [µM] | TGI (HL-60(TB) leukemia) [µM]
CCOC(=O)CCC(NC(=O)c1ccc(CNc2nc3cc(N)cc(N)c3nc2-c2ccccc2)cc1)C(=O)OCC (stereo unspecified) | > 100 | > 100 | > 100 | > 100 | > 100 | > 68.1 | > 100 | > 100 | > 90.2 | > 100 | 9.43 | > 100 | > 45
OC(c1cccs1)c1cc2ccccc2s1 (stereo unspecified) | > 10 | > 10 | > 10 | > 10 | > 10 | > 10 | > 10 | > 10 | > 10 |  | > 10 | > 10 | > 10
COc1ccc(/C=C2\CN(C)CC3=C2OC(N)=C(C#N)C3c2ccc(OC)cc2)cc1 (stereo unspecified) | > 100 | > 100 | > 100 | > 100 | > 100 | > 100 | > 83.1 | > 100 | > 100 | > 100 | > 49 | > 100 | > 27.6
O=[N+]([O-])c1ccc(Cl)cc1C1ON=C(c2ccccc2)N1C12CC3CC(CC(C3)C1)C2 (stereo unspecified) | > 100 | > 100 | > 100 | > 100 | > 100 | > 100 | > 100 | > 100 | > 100 | > 100 | > 100 |  | > 100
C#CC(O)/C=C/CCCCCCC#CC/C=C\CC#CCCCCCC/C=C/C(O)C#C (stereo unspecified) | 4.29 | 15 | 0.0282 | 4.02 | 9.67 | 8.9 |  | 14 | 4.02 | 9.06 | 0.371 | 5.29 | 3.86
N[C@@H]1c2c(Br)sc(Br)c2[C@H](O)[C@@H]1O | > 100 | > 100 | > 100 | > 100 | > 100 | > 100 | > 100 | > 100 | > 100 | > 100 | > 100 | > 100 | > 100
CCOC(OCC)C(CC)[Se]c1ccccc1[N+](=O)[O-] (stereo unspecified) | 8.92 | > 100 | 37.8 | 30.2 | > 38.5 | > 100 | 4.45 | 18.4 | > 61.2 | 11.6 | > 86.7 | 71.4 | 3.22
FC(F)(F)c1ccc2c(c1)nc(Cc1ccccc1)n2C[C@@H]1CCCN2CCCCC12 (stereo partly specified) | 31.2 | 57 | 30.3 | 27.9 | > 64.8 | 27.8 | 31.6 | 40.4 | 27 | 29.1 | > 52.7 | 30.3 | 13.9
COC(=O)[C@H]1[C@H](C(=O)OC)[C@@H](C)c2c(ccc3c2[nH]c2ccccc23)[C@@H]1C | > 100 | > 100 | > 100 | > 100 | > 100 | > 100 | > 100 | > 100 | 33.5 | > 100 | 6.7 | > 100 | > 100
COc1ccc(-c2cc(-c3ccc(Nc4ccnc5cc(C(F)(F)F)ccc45)cc3)[nH]c(=O)c2C#N)c2ccccc12 | > 58.4 | > 100 | > 49.7 | > 100 | > 100 | > 59.8 | > 100 | > 100 | > 100 | > 58.4 | > 100 | > 100 | > 100
COC1=CC(=O)C(O)=C(C[C@@]2(C)[C@@H]3CCC[C@H](COC(=O)CCCCCNC(=O)OC(C)(C)C)[C@@]3(C)CC[C@@H]2C)C1=O | > 10 | > 10 | > 10 | > 10 | > 10 | > 10 | > 10 | > 10 | > 10 | > 10 | > 10 | > 10 | > 10
N#CCCC(CC#N)N1CCN(CCO)CC1 (stereo unspecified) | > 100 | > 100 |  | > 100 | > 100 | > 100 |  | > 100 | > 100 | > 100 | > 100 | > 100 | > 100
O=C(O)c1c(CC(Cc2ccc3c(c2)CCCC3)C(=O)O)ccc2c1CCCC2 (stereo unspecified) | > 100 | > 100 | > 100 | > 100 | > 100 | > 100 | > 100 | > 100 | > 100 | > 100 | > 100 | > 100 | > 100
CCCn1cnc2c(NN=O)ncnc21 | > 100 | > 100 |  | > 100 | > 100 | > 100 | > 100 | > 100 |  | > 100 | > 100 | > 100 | > 100
Cc1ccc(S(=O)(=O)N2CCSCCSCCN(S(=O)(=O)c3ccc(C)cc3)CCN(S(=O)(=O)c3ccc(C)cc3)CC2)cc1 | > 100 | > 100 | > 100 | > 100 | > 100 | > 100 | > 100 | > 100 | > 100 | > 100 | > 100 | > 100 | > 100
Oc1ccc2c(c1)OCC(O)(c1ccccc1O)C2 (stereo unspecified) | > 100 | > 100 | > 100 | > 100 | > 100 | > 100 |  | > 100 | > 100 | > 100 | > 100 | > 100 | > 100
C=CCN1C(=O)/C(=C/c2ccc(C)cc2)N=C1SC/C=C/C | 90.5 | > 100 | 44.5 | > 100 | 89.4 | > 100 | > 100 | > 100 | > 100 | 84.9 | 37.8 | > 100 | 47.9
COC(=O)C1=NN2c3ccccc3C(=O)OCCC2C1 (stereo unspecified) | > 100 | > 100 | > 100 | > 100 | > 100 | > 100 | > 100 | > 100 | > 100 | > 100 | > 100 | > 100 | > 100

Compound | TGI (COLO 205 colon) [µM] | TGI (HS 578T breast) [µM] | TGI (LOX IMVI melanoma) [µM] | TGI (HCT-116 colon) [µM] | TGI (K-562 leukemia) [µM] | TGI (MDA-MB-231 breast) [µM] | TGI (NCI-H522 lung) [µM] | TGI (NCI-H226 lung) [µM] | TGI (SN12C renal) [µM] | TGI (A498 renal) [µM] | TGI (MOLT-4 leukemia) [µM] | TGI (KM12 colon) [µM] | TGI (HL-60(TB) leukemia) [µM]
Clc1ccc(OCc2nnc3sc(-c4ccc(-c5ccc(Cl)cc5Cl)o4)nn23)c(Cl)c1 | 73.7 | 54.5 | 36.2 | 31.4 | 62.7 | 33.3 | 34.6 | 41.5 | 38.9 | 33.4 | 41.3 | > 100 | 96.6
COc1cccc(NCC(=O)Nn2c(-c3ccccc3)nc3ccccc3c2=O)c1 | > 100 | > 100 | > 100 | > 100 | > 100 | > 100 | > 100 | > 100 | > 100 | 85 | > 100 | > 100 | > 100
COc1nn(Cc2ccccc2F)c2ccc([N+](=O)[O-])cc12 | > 100 | > 100 | > 100 | > 100 | > 100 | > 100 | > 100 | > 100 | > 100 | > 92.3 | > 100 | > 100 | > 100
N#Cc1c(=O)c2cc([N+](=O)[O-])ccc2n2c1[nH]c1ccccc12 | > 44.4 | > 74.9 | > 50.4 | > 40.1 | > 23.4 | > 57.4 | 5.75 | > 51 | > 100 | > 93.1 | > 76.1 | > 57.2 | > 100
COC1(OC)N=C(N)C2(C#N)C(C)CC(=O)N(N(C)C)C12C#N (stereo unspecified) | > 100 | > 100 | > 100 | > 100 | > 100 | > 100 | > 100 | > 100 | > 100 | > 100 | > 100 | > 100 | > 100
O=C1Oc2ccccc2C(=O)/C1=C/N1C(=O)/C(=C/c2ccc([N+](=O)[O-])cc2)SC1=S | 53.2 | 34.3 | > 100 | 50.2 | 69.8 | 57.2 | 70.1 | 53.4 | 51.6 | 27.6 | > 100 | 52.3 | > 100
CC(C)CCCC(C)[C@H]1CC[C@H]2[C@@H]3CC[C@H]4C[C@@H](CCC=C(c5cc(Cl)c(O)c(C(=O)OC(C)(C)C)c5)c5cc(Cl)c(O)c(C(=O)OC(C)(C)C)c5)CC[C@]4(C)[C@H]3CC[C@]12C (stereo partly specified) | > 50 | > 50 | > 50 | > 50 | > 50 | > 50 |  |  | > 50 | > 50 | > 50 | > 50 | > 50
COC(=O)NCCc1[nH]nc2c1C(=O)C=C(OC)C2=O | 52.8 | 88.1 | 33.7 | 32.6 | 37.3 | 30.4 | 44.3 | 50.5 | 38.8 |  | 46.4 | 41.3 | 44
NC(=O)c1n[nH]n(-c2ccccc2)c1=O | > 100 | > 100 | > 100 | > 100 | > 100 | > 100 | > 100 | > 100 | > 100 | > 100 | > 100 | > 100 | 
Oc1ccc(-c2nc3cc(C(F)(F)F)ccc3n2CC2CCCN3CCCCC23)cc1 (stereo unspecified) |  | 31.5 | 28.8 | 29.3 | 30.3 | 27.6 | 29 | 32.2 |  | 29.3 | 33.5 | 29.3 | 12.3
CC1=C(C2=C(C)C(=O)C(=O)c3cc(C)ccc32)c2ccc(C)cc2C(=O)C1=O | 0.525 | 0.863 | > 100 | 1 |  | 0.91 | 0.631 | 6.48 | 0.314 | 3.25 |  | 0.447 | > 100
Oc1cc(Cl)cc2cc(Br)cnc12 | > 100 | > 100 |  | > 100 | > 22.6 | > 100 | > 69.9 | > 88.5 | > 100 | > 88.7 | 6.96 | > 100 | 1.37
O=C1CC(Br)c2c(Cl)sc(Cl)c21 (stereo unspecified) | 28.6 | 47 | 4.4 | 16.9 | 13.7 | 22.7 | 37.3 |  | 30.6 | 38.4 | 5.54 | 20.2 | 6.9
Cc1ccc(C(=O)CC(Cl)=C(Cl)Cl)cc1 | > 100 | > 100 | > 100 | > 100 | > 100 | > 100 | > 100 | > 100 |  | > 100 | 47 | > 100 | > 100
COc1ccc(CNc2nc(NCc3ccc(OC)cc3)nc(Nc3ccccc3)n2)cc1 | > 100 | > 100 |  | > 100 | > 100 | > 100 | > 100 | > 100 | > 100 | > 100 | > 100 | 35.3 | > 100
C/C(Cl)=N\OC(=O)Nc1ccccc1C(F)(F)F | 43.6 | > 100 | 29.2 | > 100 | 40.3 | 46.9 |  |  | > 100 | > 100 | 47.9 | > 100 | 15.5
COc1cc(/C=C2\N=C(c3ccccc3)N(C3Nc4cc5c(cc4S3)NC(N3C(=O)/C(=C/c4cc(OC)c(OC)c(OC)c4)N=C3c3ccccc3)S5)C2=O)cc(OC)c1OC (stereo unspecified) |  | > 100 | > 100 | > 100 | > 100 | > 100 | > 100 | > 100 |  | > 100 | > 100 | > 100 | > 100
